Legend:
[1] = target: Tyrosine-protein kinase ABL1 (Homo sapiens) (UniProt P00519); conditions: Compound concentration 1000.0 nM
[2] = target: RAC-beta serine/threonine-protein kinase (Homo sapiens) (UniProt P31751); conditions: Compound concentration 1000.0 nM
[3] = target: Tyrosine-protein kinase receptor UFO (Homo sapiens) (UniProt P30530); conditions: Compound concentration 1000.0 nM
[4] = target: Calcium/calmodulin-dependent protein kinase kinase 2 (Homo sapiens) (UniProt Q96RR4); conditions: Compound concentration 1000.0 nM
[5] = target: Cyclin-dependent kinase-like 2 (Homo sapiens) (UniProt Q92772); conditions: Compound concentration 1000.0 nM
[6] = target: Casein kinase I isoform alpha (Homo sapiens) (UniProt P48729); conditions: Compound concentration 1000.0 nM
[7] = target: Casein kinase I isoform alpha-like (Homo sapiens) (UniProt Q8N752); conditions: Compound concentration 1000.0 nM
[8] = target: Serine/threonine-protein kinase MRCK gamma (Homo sapiens) (UniProt Q6DT37); conditions: Compound concentration 1000.0 nM
[9] = system: Epidermal growth factor receptor (Homo sapiens), P00533 [UNDEFINED MUTATION]; conditions: Compound concentration 1000.0 nM
[10] = system: Epidermal growth factor receptor (Homo sapiens), P00533 [UNDEFINED MUTATION]; conditions: Compound concentration 1000.0 nM; remark: listed apart in the source
[11] = target: Receptor tyrosine-protein kinase erbB-4 (Homo sapiens) (UniProt Q15303); conditions: Compound concentration 1000.0 nM
[12] = system: Receptor-type tyrosine-protein kinase FLT3 (Homo sapiens), P36888 [UNDEFINED MUTATION]; conditions: Compound concentration 1000.0 nM
[13] = target: Mast/stem cell growth factor receptor Kit (Homo sapiens) (UniProt P10721); conditions: Compound concentration 1000.0 nM
[14] = system: Mast/stem cell growth factor receptor Kit (Homo sapiens), P10721 [V559D,V654A]; conditions: Compound concentration 1000.0 nM
[15] = target: Mast/stem cell growth factor receptor Kit (Homo sapiens) (UniProt P10721); conditions: Compound concentration 1000.0 nM; remark: listed apart in the source
[16] = target: Mitogen-activated protein kinase kinase kinase 4 (Homo sapiens) (UniProt Q9Y6R4); conditions: Compound concentration 1000.0 nM
[17] = target: Mitogen-activated protein kinase kinase kinase 9 (Homo sapiens) (UniProt P80192); conditions: Compound concentration 1000.0 nM
[18] = target: Macrophage-stimulating protein receptor (Homo sapiens) (UniProt Q04912); conditions: Compound concentration 1000.0 nM
[19] = target: Serine/threonine-protein kinase PAK 1 (Homo sapiens) (UniProt Q13153); conditions: Compound concentration 1000.0 nM
[20] = system: Phosphatidylinositol 4,5-bisphosphate 3-kinase catalytic subunit alpha isoform (Homo sapiens), P42336 [C420R]; conditions: Compound concentration 1000.0 nM
[21] = target: Membrane-associated tyrosine- and threonine-specific cdc2-inhibitory kinase (Homo sapiens) (UniProt Q99640); conditions: Compound concentration 1000.0 nM
[22] = target: Serine/threonine-protein kinase PLK4 (Homo sapiens) (UniProt O00444); conditions: Compound concentration 1000.0 nM
[23] = target: Serine/threonine-protein kinase PRP4 homolog (Homo sapiens) (UniProt Q13523); conditions: Compound concentration 1000.0 nM
[24] = target: Ribosomal protein S6 kinase beta-1 (Homo sapiens) (UniProt P23443); conditions: Compound concentration 1000.0 nM
[25] = target: Serine/threonine-protein kinase SIK1 (Homo sapiens) (UniProt P57059); conditions: Compound concentration 1000.0 nM
[26] = target: Non-receptor tyrosine-protein kinase TNK1 (Homo sapiens) (UniProt Q13470); conditions: Compound concentration 1000.0 nM
[27] = target: T1, Dual specificity protein kinase TTK (Homo sapiens) (UniProt P33981); conditions: Compound concentration 1000.0 nM
T1 sequence (whole entry): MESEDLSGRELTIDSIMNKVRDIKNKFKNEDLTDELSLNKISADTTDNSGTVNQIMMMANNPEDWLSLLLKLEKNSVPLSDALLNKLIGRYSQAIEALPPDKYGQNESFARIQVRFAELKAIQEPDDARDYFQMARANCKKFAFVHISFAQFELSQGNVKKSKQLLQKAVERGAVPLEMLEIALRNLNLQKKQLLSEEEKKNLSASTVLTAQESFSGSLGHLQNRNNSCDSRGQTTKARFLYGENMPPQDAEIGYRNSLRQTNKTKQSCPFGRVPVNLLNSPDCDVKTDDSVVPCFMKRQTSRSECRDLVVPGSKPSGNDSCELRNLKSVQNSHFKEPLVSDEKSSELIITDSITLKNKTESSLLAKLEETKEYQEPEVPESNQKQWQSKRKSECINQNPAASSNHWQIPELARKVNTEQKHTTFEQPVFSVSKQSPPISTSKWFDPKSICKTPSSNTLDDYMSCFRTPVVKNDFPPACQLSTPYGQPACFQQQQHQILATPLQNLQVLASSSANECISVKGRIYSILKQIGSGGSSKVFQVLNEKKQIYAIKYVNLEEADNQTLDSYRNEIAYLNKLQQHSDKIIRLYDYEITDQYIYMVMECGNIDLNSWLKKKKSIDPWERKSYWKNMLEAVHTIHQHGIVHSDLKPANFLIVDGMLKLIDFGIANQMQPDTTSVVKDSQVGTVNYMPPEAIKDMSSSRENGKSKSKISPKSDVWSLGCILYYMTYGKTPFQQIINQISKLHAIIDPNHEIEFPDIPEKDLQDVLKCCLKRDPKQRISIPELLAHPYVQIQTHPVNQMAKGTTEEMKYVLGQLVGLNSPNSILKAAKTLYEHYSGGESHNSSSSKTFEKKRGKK

[28] = target: Serine/threonine-protein kinase 25 (Homo sapiens) (UniProt O00506); conditions: Compound concentration 1000.0 nM
[29] = target: Mitogen-activated protein kinase kinase kinase 20 (Homo sapiens) (UniProt Q9NYL2); conditions: Compound concentration 1000.0 nM
[30] = target: 5-hydroxytryptamine receptor 2B (Homo sapiens) (UniProt P41595); conditions: Compound concentration 10.0 uM
[31] = target: Mu-type opioid receptor (Homo sapiens) (UniProt P35372); conditions: Compound concentration 10.0 uM

Sequence of Epidermal growth factor receptor (Homo sapiens), P00533 [UNDEFINED MUTATION] (P00533 whole entry, looked up, change not shown): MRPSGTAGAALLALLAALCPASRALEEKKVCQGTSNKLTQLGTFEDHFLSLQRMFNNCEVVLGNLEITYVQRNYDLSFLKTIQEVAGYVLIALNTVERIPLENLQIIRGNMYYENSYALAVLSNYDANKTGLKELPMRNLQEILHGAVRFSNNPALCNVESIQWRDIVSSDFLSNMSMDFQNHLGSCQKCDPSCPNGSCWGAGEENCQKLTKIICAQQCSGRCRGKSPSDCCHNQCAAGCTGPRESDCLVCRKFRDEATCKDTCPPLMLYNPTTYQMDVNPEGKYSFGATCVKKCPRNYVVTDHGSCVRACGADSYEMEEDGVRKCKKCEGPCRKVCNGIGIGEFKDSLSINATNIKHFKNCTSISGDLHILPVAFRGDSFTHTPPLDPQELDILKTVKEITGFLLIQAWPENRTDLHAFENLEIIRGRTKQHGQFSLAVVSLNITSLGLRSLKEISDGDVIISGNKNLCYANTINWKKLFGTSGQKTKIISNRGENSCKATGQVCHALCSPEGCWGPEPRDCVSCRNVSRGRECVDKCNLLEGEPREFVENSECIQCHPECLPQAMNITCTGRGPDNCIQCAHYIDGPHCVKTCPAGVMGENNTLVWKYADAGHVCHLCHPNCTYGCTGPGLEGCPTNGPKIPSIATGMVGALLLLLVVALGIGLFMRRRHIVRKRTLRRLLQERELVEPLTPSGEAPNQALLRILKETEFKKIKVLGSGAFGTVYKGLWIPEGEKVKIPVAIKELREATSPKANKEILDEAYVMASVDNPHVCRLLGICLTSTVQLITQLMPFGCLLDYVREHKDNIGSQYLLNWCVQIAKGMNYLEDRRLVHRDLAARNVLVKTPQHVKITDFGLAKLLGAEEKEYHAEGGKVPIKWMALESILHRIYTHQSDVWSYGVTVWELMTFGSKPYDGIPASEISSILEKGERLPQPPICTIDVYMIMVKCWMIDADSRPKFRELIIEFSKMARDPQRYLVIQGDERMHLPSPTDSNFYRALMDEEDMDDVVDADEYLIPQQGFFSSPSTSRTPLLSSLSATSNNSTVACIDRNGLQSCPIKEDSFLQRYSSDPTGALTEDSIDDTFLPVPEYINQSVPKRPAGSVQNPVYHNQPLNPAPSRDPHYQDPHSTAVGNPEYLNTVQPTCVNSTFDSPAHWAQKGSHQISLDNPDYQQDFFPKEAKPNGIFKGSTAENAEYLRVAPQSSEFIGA
Sequence of Mast/stem cell growth factor receptor Kit (Homo sapiens) (P10721 whole entry): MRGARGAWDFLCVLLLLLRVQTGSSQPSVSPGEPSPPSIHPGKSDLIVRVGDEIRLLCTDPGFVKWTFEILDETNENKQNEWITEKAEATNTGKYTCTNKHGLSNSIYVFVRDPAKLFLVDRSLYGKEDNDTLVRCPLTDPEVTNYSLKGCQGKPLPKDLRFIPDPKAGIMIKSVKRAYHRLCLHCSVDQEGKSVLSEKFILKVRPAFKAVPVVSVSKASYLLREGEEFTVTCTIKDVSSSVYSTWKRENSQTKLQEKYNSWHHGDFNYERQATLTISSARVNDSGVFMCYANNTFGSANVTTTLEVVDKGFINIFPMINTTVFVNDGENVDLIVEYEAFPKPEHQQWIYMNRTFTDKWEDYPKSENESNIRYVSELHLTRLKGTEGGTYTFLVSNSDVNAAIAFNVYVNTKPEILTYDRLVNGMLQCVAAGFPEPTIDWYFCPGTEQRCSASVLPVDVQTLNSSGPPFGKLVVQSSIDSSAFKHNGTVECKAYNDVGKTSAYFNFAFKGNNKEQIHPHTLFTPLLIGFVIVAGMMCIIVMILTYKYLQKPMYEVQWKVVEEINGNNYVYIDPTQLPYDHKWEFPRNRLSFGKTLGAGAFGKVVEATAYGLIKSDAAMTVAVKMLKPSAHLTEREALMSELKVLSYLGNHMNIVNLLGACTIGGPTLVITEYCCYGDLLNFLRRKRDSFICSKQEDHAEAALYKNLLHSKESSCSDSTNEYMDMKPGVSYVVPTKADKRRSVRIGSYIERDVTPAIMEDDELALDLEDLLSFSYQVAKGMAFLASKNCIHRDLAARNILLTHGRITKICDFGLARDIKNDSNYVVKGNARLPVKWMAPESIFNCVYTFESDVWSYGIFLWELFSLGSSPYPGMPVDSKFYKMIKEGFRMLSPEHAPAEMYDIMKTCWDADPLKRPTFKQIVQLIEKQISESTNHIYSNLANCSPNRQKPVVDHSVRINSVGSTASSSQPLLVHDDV
Sequence of Serine/threonine-protein kinase 25 (Homo sapiens) (O00506 whole entry, looked up): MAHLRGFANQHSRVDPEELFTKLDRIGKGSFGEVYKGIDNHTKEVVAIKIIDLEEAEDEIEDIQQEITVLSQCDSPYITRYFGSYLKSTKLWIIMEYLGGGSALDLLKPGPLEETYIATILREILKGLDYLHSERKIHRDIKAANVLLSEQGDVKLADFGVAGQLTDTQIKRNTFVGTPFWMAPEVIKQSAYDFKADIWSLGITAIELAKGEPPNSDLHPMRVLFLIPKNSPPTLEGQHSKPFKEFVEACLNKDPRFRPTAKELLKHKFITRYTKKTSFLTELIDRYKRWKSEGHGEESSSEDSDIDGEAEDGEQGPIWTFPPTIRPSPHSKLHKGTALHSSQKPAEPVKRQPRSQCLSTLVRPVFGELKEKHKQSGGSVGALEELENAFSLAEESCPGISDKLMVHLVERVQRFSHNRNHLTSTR
Sequence of Receptor tyrosine-protein kinase erbB-4 (Homo sapiens) (Q15303 whole entry): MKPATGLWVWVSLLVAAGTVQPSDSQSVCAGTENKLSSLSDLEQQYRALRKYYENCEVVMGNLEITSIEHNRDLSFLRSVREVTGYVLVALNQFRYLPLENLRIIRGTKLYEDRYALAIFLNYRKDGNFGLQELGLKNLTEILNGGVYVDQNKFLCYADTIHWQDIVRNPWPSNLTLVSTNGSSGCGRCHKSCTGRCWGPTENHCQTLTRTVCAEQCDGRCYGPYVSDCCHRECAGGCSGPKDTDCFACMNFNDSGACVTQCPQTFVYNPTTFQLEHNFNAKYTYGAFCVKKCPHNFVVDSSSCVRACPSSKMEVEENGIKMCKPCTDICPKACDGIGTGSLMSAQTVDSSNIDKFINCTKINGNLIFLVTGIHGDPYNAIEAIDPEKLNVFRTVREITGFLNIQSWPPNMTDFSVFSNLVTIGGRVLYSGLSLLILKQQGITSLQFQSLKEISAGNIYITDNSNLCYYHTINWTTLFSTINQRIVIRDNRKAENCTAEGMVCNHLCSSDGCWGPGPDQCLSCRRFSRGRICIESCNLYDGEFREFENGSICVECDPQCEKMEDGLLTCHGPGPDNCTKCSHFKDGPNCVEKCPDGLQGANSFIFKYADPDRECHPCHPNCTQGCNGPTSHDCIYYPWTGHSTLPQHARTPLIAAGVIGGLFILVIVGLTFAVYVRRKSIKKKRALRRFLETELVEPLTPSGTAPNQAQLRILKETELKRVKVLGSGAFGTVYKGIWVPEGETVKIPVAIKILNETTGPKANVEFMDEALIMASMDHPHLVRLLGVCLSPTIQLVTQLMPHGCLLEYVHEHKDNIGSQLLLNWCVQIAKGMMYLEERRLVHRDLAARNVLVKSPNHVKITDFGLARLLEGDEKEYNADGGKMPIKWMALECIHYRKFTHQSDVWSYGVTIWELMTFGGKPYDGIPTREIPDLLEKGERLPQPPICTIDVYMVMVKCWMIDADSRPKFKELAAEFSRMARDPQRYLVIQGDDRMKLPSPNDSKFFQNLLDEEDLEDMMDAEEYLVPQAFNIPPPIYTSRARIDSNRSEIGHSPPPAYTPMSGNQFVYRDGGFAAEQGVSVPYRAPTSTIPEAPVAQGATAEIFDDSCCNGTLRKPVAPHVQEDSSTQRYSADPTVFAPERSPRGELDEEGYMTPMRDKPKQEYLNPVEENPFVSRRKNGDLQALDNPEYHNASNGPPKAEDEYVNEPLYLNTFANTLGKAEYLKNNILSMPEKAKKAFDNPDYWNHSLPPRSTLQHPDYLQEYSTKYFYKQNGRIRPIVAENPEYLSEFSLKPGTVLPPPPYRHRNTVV
Sequence of 5-hydroxytryptamine receptor 2B (Homo sapiens) (P41595 whole entry): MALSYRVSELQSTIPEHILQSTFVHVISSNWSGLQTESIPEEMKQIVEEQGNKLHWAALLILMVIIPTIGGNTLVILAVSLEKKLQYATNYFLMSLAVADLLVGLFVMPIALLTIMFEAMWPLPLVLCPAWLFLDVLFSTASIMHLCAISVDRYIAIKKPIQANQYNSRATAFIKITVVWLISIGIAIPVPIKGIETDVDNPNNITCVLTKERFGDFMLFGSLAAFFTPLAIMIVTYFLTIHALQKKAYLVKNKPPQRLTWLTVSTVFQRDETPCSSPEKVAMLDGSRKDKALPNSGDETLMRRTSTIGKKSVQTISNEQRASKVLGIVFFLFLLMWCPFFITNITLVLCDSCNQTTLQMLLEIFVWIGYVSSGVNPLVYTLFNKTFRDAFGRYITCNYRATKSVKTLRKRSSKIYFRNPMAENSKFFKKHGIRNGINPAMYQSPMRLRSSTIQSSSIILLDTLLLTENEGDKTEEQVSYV
Sequence of Calcium/calmodulin-dependent protein kinase kinase 2 (Homo sapiens) (Q96RR4 2-588 limits assumed): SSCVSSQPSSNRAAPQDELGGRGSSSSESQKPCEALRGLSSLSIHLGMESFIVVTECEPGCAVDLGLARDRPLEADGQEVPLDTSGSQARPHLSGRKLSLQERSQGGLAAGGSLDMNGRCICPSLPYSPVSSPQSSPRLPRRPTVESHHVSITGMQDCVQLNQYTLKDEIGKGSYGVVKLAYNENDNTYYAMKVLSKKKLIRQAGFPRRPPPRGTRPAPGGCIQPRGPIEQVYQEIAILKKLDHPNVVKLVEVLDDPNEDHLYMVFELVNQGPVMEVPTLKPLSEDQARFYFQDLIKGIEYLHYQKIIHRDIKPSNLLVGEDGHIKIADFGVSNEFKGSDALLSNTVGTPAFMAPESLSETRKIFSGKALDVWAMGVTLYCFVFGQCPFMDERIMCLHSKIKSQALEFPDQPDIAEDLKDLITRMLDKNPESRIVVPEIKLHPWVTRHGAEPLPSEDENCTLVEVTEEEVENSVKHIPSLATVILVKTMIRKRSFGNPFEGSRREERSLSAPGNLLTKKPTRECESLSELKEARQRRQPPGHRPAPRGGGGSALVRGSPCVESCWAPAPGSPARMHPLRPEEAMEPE
Sequence of Mast/stem cell growth factor receptor Kit (Homo sapiens), P10721 [V559D,V654A] (P10721 whole entry V559D/V654A): as the sequence (P10721 whole entry) above, with V559D, V654A counted along it

CC1=C(C#N)C(c2ccc3c(c2)c(NC(=O)c2ccccc2C)nn3C)C(C#N)=C(C)N1 [BAY-974]
residual activity [1]: 66%
residual activity [2]: 100%
residual activity [3]: 100%
residual activity [4]: 100%
residual activity [5]: 100%
residual activity [6]: 70%
residual activity [7]: 97%
residual activity [8]: 92%
residual activity [9]: 52%
residual activity [10]: 78%
residual activity [11]: 65%
residual activity [12]: 96%
residual activity [13]: 100%
residual activity [14]: 99%
residual activity [15]: 77%
residual activity [16]: 84%
residual activity [17]: 96%
residual activity [18]: 95%
residual activity [19]: 100%
residual activity [20]: 74%
residual activity [21]: 99%
residual activity [22]: 100%
residual activity [23]: 77%
residual activity [24]: 74%
residual activity [25]: 88%
residual activity [26]: 76%
residual activity [27]: 82%
residual activity [28]: 100%
residual activity [29]: 100%
inhibition [30]: 11.4%
inhibition [31]: 13.7%

CCc1ccccc1C(=O)Nc1n[nH]c2c(C)c(F)c(C3C(C#N)=C(C)N(C)C(C)=C3C#N)cc12 [BAY-3827]
residual activity [1]: 88%
residual activity [2]: 95%
residual activity [3]: 100%
residual activity [4]: 95%
residual activity [5]: 94%
residual activity [6]: 96%
residual activity [7]: 62%
residual activity [8]: 93%
residual activity [9]: 62%
residual activity [10]: 29%
residual activity [11]: 84%
residual activity [12]: 11%
residual activity [13]: 84%
residual activity [14]: 100%
residual activity [15]: 100%
residual activity [16]: 72%
residual activity [17]: 92%
residual activity [18]: 100%
residual activity [19]: 82%
residual activity [20]: 100%
residual activity [21]: 100%
residual activity [22]: 100%
residual activity [23]: 72%
residual activity [24]: 80%
residual activity [25]: 66%
residual activity [26]: 100%
residual activity [27]: 82%
residual activity [28]: 80%
residual activity [29]: 90%
inhibition [30]: 32.5%
inhibition [31]: 30.5%

From ChEMBL document CHEMBL4507319 (2021)
